Calls of active or inactive are those of the source.
What was measured:
[1] = NIH/3T3 fibroblast cytotoxicity, dose response, cytotoxicity control for T. cruzi growth inhibitor project, cell-based, cherry-pick samples, set 2 (AID 651817); assay type: functional; details: NIH3T3
Beta-lactamase [2] = target: Beta-lactamase (Salmonella choleraesuis (strain SC-B67), UniProt Q5J463); assay: Epi-absorbance-based counterscreen for selective VIM-2 inhibitors: dose response biochemical high throughput screening assay to identify inhibitors of TEM-1 serine-beta-lactamase.
Sequence of Beta-lactamase (Salmonella choleraesuis (strain SC-B67), UniProt Q5J463) (Q5J463 whole entry): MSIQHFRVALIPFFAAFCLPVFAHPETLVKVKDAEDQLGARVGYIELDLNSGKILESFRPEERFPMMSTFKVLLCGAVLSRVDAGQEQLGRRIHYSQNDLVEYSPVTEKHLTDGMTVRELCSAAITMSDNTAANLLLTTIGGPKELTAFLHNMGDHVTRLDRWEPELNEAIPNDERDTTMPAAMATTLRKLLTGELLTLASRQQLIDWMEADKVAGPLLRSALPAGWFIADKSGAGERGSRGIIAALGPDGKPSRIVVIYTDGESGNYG

Beta Lactamase [3] = target: T1, Beta Lactamase (Pseudomonas aeruginosa, UniProt Q932Y6); assay: VIM-2 inhibitor FRET-based artefact check, dose response, artefact control for selective VIM-2 inhibitor project, biochemical, FRET readout, CCF2 substrate (AID 1926)
T1 sequence (Q932Y6 whole entry): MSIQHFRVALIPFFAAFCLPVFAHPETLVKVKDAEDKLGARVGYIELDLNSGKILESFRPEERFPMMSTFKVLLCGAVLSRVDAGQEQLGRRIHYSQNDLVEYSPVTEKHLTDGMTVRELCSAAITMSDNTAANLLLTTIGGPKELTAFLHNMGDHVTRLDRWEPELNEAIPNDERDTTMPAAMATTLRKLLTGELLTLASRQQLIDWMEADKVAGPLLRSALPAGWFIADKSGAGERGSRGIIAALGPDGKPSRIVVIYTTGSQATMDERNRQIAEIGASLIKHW

Beta-lactamase [4] = target: T2, Beta-lactamase (Pseudomonas aeruginosa, UniProt Q79MP6); assay: […] counterscreen for selective VIM-2 inhibitors: dose response biochemical high throughput screening assay to identify inhibitors of IMP-1 metallo-beta-lactamase.
T2 sequence (Q79MP6 whole entry): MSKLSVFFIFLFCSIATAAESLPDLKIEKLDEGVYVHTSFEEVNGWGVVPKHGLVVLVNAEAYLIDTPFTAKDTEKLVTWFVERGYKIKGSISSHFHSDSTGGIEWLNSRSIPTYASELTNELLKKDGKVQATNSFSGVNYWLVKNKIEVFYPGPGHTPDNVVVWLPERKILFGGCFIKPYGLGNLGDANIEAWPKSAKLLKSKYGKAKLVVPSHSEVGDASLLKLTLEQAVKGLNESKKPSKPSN

Beta Lactamase [5] = target: T1, Beta Lactamase; assay: VIM-2 metallo-beta-lactamase inhibitor potency, dose response, biochemical, epi-absorbance readout, selective inhibitors (AID 1919)
Beta-lactamase [6] = target: T2, Beta-lactamase; assay: IMP-1 metallo-beta-lactamase inhibitors, dose response, selectivity assay for VIM-2 inhibitor project, biochemical, epi-absorbance (AID 1920)
[7] = HEK293T cell cytotoxicity, dose response, cytotoxicity control for HIV Vif inhibitor project, cherry-picks (AID 652208); assay type: functional, cell-based
Protein RecA = target: T3, Protein RecA (Mycobacterium tuberculosis, UniProt P9WHJ3); assay: Fluorescence Cell-Free Homogeneous Dose Retest to Identify Inhibitors of RecA-Intein Splicing Activity. [Related pubchem assays (depositor defined):AID2097, AID2223, AID489010, AID492950]; assay type: functional
T3 sequence (P9WHJ3 whole entry): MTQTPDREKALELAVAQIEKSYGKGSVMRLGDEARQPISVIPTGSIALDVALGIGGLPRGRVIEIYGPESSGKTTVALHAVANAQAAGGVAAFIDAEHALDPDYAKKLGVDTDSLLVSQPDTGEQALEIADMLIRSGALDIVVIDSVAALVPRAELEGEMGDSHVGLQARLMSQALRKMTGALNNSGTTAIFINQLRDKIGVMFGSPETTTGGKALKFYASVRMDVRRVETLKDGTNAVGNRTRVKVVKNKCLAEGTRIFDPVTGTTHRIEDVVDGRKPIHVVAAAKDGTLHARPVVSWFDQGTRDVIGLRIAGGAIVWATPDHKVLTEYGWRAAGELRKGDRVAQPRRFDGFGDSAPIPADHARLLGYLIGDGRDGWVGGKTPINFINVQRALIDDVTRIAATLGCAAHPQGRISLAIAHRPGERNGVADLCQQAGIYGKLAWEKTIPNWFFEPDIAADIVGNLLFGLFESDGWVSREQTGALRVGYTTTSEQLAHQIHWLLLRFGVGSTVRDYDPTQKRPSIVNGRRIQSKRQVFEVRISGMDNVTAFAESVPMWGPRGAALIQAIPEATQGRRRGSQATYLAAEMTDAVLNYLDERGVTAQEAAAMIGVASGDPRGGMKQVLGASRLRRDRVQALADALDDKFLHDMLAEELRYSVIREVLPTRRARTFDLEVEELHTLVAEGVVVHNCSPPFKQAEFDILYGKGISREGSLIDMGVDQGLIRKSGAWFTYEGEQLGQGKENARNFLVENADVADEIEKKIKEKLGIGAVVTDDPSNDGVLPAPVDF

[8] = target: T4, Sentrin-specific protease 8 (Homo sapiens, UniProt Q96LD8); assay type: functional
T4 sequence (Q96LD8 whole entry): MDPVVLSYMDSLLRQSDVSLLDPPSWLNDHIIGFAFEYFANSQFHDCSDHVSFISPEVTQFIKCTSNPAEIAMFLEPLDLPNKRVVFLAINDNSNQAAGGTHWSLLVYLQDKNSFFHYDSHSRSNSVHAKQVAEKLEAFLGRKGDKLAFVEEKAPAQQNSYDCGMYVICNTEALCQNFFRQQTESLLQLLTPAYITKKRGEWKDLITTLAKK

[9] = target: T4, Sentrin-specific protease 8; assay type: functional; remark: listed apart in the source
[10] = target: T5, Replicative DNA helicase DnaB (Mycobacterium tuberculosis, UniProt P9WMR3); assay: DnaB intein splicing inhibitors, dose response, biochemical, cell-free fluorescence (AID 449749); assay type: functional
T5 sequence (P9WMR3 whole entry): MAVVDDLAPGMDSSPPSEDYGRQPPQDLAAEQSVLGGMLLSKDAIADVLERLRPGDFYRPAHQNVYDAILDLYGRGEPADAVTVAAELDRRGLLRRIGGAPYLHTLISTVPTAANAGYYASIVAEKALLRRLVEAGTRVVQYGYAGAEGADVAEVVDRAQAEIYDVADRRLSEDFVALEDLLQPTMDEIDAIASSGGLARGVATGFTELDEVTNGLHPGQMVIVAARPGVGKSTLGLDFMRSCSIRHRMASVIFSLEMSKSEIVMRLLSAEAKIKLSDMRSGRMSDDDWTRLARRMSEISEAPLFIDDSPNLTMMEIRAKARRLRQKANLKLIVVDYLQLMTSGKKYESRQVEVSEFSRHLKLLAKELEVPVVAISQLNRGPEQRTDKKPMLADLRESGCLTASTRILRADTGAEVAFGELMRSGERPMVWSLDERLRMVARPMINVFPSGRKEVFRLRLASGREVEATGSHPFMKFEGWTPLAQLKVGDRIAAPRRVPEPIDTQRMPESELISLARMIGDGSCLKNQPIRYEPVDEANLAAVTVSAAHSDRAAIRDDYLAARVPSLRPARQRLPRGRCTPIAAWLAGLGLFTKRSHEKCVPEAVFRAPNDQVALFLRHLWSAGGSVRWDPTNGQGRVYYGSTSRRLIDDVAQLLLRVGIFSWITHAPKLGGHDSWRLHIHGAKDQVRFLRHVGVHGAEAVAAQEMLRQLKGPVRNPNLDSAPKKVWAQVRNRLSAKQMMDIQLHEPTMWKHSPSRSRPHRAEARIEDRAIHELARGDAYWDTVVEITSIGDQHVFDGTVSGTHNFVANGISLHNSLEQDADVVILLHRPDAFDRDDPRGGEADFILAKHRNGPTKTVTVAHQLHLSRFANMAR

[11] = target: Broad substrate specificity ATP-binding cassette transporter ABCG2 (Homo sapiens, UniProt Q9UNQ0); assay: ABCG2 efflux pump inhibitors, dose response, Ig-MXP3 cells, flow cytometry (AID 1690); assay type: functional
Sequence of Broad substrate specificity ATP-binding cassette transporter ABCG2 (Q9UNQ0 whole entry): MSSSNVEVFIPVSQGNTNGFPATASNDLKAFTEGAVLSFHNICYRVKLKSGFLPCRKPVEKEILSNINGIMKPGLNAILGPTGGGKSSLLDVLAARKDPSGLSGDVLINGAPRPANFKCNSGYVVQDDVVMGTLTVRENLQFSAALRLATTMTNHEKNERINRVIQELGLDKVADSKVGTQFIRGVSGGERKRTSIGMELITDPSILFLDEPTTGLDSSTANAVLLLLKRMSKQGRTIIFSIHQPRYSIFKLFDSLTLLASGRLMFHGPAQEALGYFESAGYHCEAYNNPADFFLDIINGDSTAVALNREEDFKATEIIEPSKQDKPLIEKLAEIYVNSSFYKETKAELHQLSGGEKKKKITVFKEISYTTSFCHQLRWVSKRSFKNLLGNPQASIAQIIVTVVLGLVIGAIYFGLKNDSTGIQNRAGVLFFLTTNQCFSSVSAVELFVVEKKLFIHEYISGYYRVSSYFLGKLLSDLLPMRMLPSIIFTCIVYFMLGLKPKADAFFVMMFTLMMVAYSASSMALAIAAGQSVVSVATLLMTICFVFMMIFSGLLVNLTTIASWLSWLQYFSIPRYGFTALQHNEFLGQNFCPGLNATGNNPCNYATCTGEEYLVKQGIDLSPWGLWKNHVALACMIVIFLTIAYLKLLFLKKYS

[12] = target: Dual specificity protein phosphatase 3 (Homo sapiens, UniProt P51452); assay: VHR phosphatase inhibition, dose response, selectivity assay for STEP inhibitor project, biochemical (AID 602374); assay type: functional; details: read-out: IC50_Mean
Sequence of Dual specificity protein phosphatase 3 (P51452 whole entry): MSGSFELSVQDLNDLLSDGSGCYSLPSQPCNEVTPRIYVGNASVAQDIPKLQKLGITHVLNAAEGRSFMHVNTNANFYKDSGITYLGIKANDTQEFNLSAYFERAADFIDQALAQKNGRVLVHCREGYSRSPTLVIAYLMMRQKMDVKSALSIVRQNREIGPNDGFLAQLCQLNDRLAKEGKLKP

[13] = target: T6, Tyrosine-protein phosphatase non-receptor type 11 (Homo sapiens, UniProt Q06124); assay: SHP2 phosphatase inhibition, dose response, selectivity assay for STEP inhibitor project, biochemical (AID 602367); assay type: functional; details: read-out: IC50_Mean
T6 sequence (Q06124 whole entry): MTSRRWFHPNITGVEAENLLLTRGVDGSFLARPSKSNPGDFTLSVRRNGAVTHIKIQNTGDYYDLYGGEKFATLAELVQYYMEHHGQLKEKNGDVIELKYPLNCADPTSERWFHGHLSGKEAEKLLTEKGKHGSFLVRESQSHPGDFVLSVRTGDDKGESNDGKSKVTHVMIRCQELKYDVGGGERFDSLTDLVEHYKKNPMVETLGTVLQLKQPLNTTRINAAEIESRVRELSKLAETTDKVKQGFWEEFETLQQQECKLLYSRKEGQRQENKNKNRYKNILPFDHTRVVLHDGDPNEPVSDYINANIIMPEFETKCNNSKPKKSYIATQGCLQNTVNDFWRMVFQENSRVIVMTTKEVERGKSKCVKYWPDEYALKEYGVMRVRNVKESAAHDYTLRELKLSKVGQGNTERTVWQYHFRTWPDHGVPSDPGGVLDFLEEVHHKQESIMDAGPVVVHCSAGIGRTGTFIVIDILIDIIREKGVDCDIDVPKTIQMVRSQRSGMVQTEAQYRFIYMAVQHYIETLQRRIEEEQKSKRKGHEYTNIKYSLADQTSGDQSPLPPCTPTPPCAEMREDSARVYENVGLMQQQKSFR

[14] = target: Arf-GAP with SH3 domain, ANK repeat and PH domain-containing protein 1 (Homo sapiens, UniProt Q9ULH1); assay type: functional;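 further: biochemical fluorescence polarization dose–response screen measuring inhibition of ASAP1; ASAP1 GAP domain stimulating GTP hydrolysis by truncated human ARF1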
Sequence of Arf-GAP with SH3 domain, ANK repeat and PH domain-containing protein 1 (Q9ULH1 whole entry, the tested form may be a part): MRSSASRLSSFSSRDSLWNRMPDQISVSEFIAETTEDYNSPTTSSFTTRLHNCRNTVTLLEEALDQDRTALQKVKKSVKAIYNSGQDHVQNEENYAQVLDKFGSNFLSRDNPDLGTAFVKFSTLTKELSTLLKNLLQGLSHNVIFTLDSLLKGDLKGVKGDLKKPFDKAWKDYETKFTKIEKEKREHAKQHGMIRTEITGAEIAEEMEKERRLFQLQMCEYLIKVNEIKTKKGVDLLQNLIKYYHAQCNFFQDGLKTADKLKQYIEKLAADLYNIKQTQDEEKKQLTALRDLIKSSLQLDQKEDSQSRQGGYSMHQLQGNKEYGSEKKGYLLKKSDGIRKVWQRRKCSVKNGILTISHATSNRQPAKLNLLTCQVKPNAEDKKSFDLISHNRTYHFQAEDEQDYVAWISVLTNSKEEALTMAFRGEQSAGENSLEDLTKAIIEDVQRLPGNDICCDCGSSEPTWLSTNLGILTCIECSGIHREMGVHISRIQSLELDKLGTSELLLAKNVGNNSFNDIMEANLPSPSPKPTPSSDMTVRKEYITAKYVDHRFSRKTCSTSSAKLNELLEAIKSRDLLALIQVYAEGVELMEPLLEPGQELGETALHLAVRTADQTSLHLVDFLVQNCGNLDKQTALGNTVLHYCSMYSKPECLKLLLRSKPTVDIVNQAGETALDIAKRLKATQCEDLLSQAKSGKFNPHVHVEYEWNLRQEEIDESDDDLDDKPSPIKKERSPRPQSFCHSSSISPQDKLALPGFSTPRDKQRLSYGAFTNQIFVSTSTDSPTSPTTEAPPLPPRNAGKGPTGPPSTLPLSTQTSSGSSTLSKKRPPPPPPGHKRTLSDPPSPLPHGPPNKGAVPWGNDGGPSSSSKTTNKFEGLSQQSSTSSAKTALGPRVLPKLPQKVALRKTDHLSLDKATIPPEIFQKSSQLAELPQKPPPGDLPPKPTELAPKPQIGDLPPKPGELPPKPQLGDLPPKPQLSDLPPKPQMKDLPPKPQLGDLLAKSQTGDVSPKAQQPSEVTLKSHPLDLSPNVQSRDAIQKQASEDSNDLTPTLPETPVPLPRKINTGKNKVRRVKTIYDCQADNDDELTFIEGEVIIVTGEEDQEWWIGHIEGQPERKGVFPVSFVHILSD

[15] = target: T7, Tyrosine-protein phosphatase non-receptor type 5 (Homo sapiens, UniProt P54829); assay: STEP phosphatase inhibitors, confirmation, biochemical, fluorescence intensity, uHTS hits (AID 602372); assay type: functional; details: read-out: IC50_Mean
T7 sequence (P54829 whole entry): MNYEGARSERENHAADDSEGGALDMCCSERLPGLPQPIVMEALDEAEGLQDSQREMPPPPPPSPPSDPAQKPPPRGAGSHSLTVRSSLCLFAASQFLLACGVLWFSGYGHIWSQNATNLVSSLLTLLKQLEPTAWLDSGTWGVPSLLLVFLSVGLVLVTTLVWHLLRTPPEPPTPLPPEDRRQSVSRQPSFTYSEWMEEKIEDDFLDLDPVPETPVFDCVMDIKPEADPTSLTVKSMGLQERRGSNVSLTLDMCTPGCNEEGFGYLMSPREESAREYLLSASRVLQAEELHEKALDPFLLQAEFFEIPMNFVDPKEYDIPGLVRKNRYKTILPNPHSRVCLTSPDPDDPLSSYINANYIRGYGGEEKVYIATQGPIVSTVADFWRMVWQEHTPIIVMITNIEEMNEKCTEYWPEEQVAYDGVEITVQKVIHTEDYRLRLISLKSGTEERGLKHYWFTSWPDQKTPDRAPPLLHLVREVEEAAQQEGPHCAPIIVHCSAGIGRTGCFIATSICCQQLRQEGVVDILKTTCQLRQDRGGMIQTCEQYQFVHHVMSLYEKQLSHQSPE

**Q.** Which AC50 [1] does the source give for `C[C@H](CO)N1C[C@H](C)[C@H](CN(C)Cc2ccc(Cl)c(Cl)c2)Oc2c(NC(=O)Nc3ccc(C(F)(F)F)cc3)cccc2C1=O` here?
**A.** 12.9 µM (active)

**Q.** For `O=C(O)COc1ccccc1/C=N/n1c(S)nnc1C1CCCCC1`, which IC50 (Beta-lactamase [2]) is on record?
**A.** > 59.6 µM (inactive)

**Q.** And the IC50 (Beta Lactamase [3])?
**A.** 8.62 µM (active)

**Q.** What about the IC50 (Beta-lactamase [4]) of the same compound?
**A.** > 59.6 µM (inactive)

**Q.** And the IC50 (Beta Lactamase [5])?
**A.** 23.1 µM (inactive)

**Q.** What about the IC50 (Beta-lactamase [6]) of the same compound?
**A.** > 59.6 µM (inactive)

**Q.** With `Cc1ccc(/C=C2/CNC/C(=C/c3ccc(C)cc3)C2=O)cc1` as the compound, how does the AC50 [7] read?
**A.** 10.3 µM (active)

**Q.** Which results are given for `Cc1cc(=O)n(-c2ccc(O)cc2)[nH]1`?
**A.** EC50 (Protein RecA): 0.774 µM (active); IC50 [8]: 17.2 µM (active); IC50 [9]: 19.1 µM (active); AC50 [10]: 2.3 µM (active)

**Q.** Which EC50 [11] does the source give for `COc1ccc2cc(C(=O)OC(C)C)sc(=O)c2c1OC` here?
**A.** 24.4 µM (inactive)

**Q.** With `Cc1nnc2sc(-c3ccc(NC(=O)c4ccc(-c5ccc(Cl)cc5Cl)o4)cc3)nn12` as the compound, how does the IC50 [12] read?
**A.** 0.716 µM (active)

**Q.** What about the IC50 [13] of the same compound?
**A.** 0.409 µM (active)

**Q.** And the IC50 [14]?
**A.** 2.48 µM (active)

**Q.** And the IC50 [15]?
**A.** > 80 µM (inactive)

From ChEMBL document CHEMBL1201862, “PubChem BioAssay data set” (2004)
